# Measurements reported in patent US20260262643A1, “HERBICIDAL BENZOXAZINES” (FMC CORPORATION, priority 2022, published 2026).
# Assays:
# barnyardgrass [1] = assay: Test C postemergence; format: in vivo, Echinochloa crusgalli; conditions: 10 days
# How it was run: (§1)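 Seeds sown in loam soil–sand blend received a directed preemergence soil spray of test chemical in non-phytotoxic solvent with surfactant; postemergence plants (2–10 cm, one- to two-leaf stage) were sprayed with the same formulation. Greenhouse-held 10 days, then visually rated for injury versus untreated controls, 0 (no effect) to 100 (complete control).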
# rice = assay: Test D flooded paddy test; format: in vivo, Oryza sativa; conditions: 250 g ai/ha, applied to paddy water, visual rating after 13 to 14 days, scale 0 to 100 (0 no effect, 100 complete control)
# How it was run: (§2)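 2-leaf plants; flood 3 cm above soil; compound dosed into paddy water; greenhouse 13–14 d; visual rating vs controls, 0–100 (100 = complete control); dash = not tested.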
# kochia [2] = assay: Test C postemergence; format: in vivo, Bassia scoparia; conditions: 10 days
# How it was run: as §1
# green foxtail [3] = assay: Test C preemergence; format: in vivo, Setaria viridis; conditions: 0 to 100 scale (0 no effect, 100 complete control); for Foxtail, Green plant response rating: preemergence
# How it was run: as §1
# barnyardgrass [4] = assay: Test D flooded paddy test; format: in vivo, Echinochloa crus-galli; conditions: 250 g ai/ha, applied to paddy water, visual rating after 13 to 14 days, scale 0 to 100 (0 no effect, 100 complete control)
# How it was run: as §2
# wheat [5] = assay: Test C postemergence; format: in vivo, Triticum aestivum; conditions: 10 days
# How it was run: as §1
# blackgrass [6] = assay: Test C preemergence; format: in vivo, Alopecurus myosuroides; conditions: 0 to 100 scale (0 no effect, 100 complete control); for Blackgrass plant response rating: preemergence
# How it was run: as §1
# horseweed = assay: Test C postemergence; format: in vivo, Erigeron canadensis; conditions: 10 days
# How it was run: as §1
# green foxtail [7] = assay: Test C postemergence; format: in vivo, Setaria viridis; conditions: 10 days
# How it was run: as §1
# oat, wild [8] = assay: Test C preemergence; format: in vivo, Avena fatua; conditions: 0 to 100 scale (0 no effect, 100 complete control); for Oat, Wild plant response rating: preemergence
# How it was run: as §1
# wheat [9] = assay: Test C preemergence; format: in vivo, Triticum aestivum; conditions: 0 to 100 scale (0 no effect, 100 complete control); for Wheat plant response rating: preemergence
# How it was run: as §1
# ragweed [10] = assay: Test C postemergence; format: in vivo, Ambrosia artemisiifolia; conditions: 10 days
# How it was run: as §1
# ducksalad = assay: Test D flooded paddy test; format: in vivo, Heteranthera limosa; conditions: 250 g ai/ha, applied to paddy water, visual rating after 13 to 14 days, scale 0 to 100 (0 no effect, 100 complete control)
# How it was run: as §2
# barnyardgrass [11] = assay: Test C preemergence; format: in vivo, Echinochloa crusgalli; conditions: 0 to 100 scale (0 no effect, 100 complete control); for Barnyardgrass plant response rating: preemergence
# How it was run: as §1
# soybean [12] = assay: Test C postemergence; format: in vivo, Glycine max; conditions: 10 days
# How it was run: as §1
# galium = assay: Test C postemergence; format: in vivo, Galium aparine; conditions: 10 days
# How it was run: as §1
# corn [13] = assay: Test C postemergence; format: in vivo, Zea mays; conditions: 10 days
# How it was run: as §1
# blackgrass [14] = assay: Test C postemergence; format: in vivo, Alopecurus myosuroides; conditions: 10 days
# How it was run: as §1
# kochia [15] = assay: Test C preemergence; format: in vivo, Bassia scoparia; conditions: 0 to 100 scale (0 no effect, 100 complete control); for Kochia plant response rating: preemergence
# How it was run: as §1
# soybean [16] = assay: Test C preemergence; format: in vivo, Glycine max; conditions: 0 to 100 scale (0 no effect, 100 complete control); for Soybean plant response rating: preemergence
# How it was run: as §1
# oat, wild [17] = assay: Test C postemergence; format: in vivo, Avena fatua; conditions: 10 days
# How it was run: as §1
# ryegrass, Italian [18] = assay: Test C preemergence; format: in vivo, Lolium multiflorum; conditions: 0 to 100 scale (0 no effect, 100 complete control); for Ryegrass, Italian plant response rating: preemergence
# How it was run: as §1
# ryegrass, Italian [19] = assay: Test C postemergence; format: in vivo, Lolium multiflorum; conditions: 10 days
# How it was run: as §1
# corn [20] = assay: Test C preemergence; format: in vivo, Zea mays; conditions: 0 to 100 scale (0 no effect, 100 complete control); for Corn plant response rating: preemergence
# How it was run: as §1
# ragweed [21] = assay: Test C preemergence; format: in vivo, Ambrosia artemisiifolia; conditions: 0 to 100 scale (0 no effect, 100 complete control); for Ragweed plant response rating: preemergence
# How it was run: as §1
# sedge, umbrella = assay: Test D flooded paddy test; format: in vivo, Cyperus difformis; conditions: 250 g ai/ha, applied to paddy water, visual rating after 13 to 14 days, scale 0 to 100 (0 no effect, 100 complete control)
# How it was run: as §2
# pigweed, palmer [22] = assay: Test C preemergence; format: in vivo, Amaranthus palmeri; conditions: 0 to 100 scale (0 no effect, 100 complete control); for Pigweed, Palmer plant response rating: preemergence
# How it was run: as §1
# pigweed, palmer [23] = assay: Test C postemergence; format: in vivo, Amaranthus palmeri; conditions: 10 days
# How it was run: as §1
# [24] = 125 g ai/ha, postemergence, 0 to 100 scale, 0 no effect, 100 complete control
# [25] = Postemergence, 500 g ai/ha, visual 0 to 100 scale (0 no effect, 100 complete control)
# [26] = Preemergence, 500 g ai/ha, visual rating after 10 days
# [27] = 500 g ai/ha, postemergence, 0 to 100 scale (0 no effect, 100 complete control)
# [28] = Postemergence, 125 g ai/ha, 0 to 100 scale (0 no effect, 100 complete control)
compound,measurement,setting,value
Cc1ccc(-n2cnc(C3(C)CCC3)n2)cc1C(=O)N1C[C@H](C)Oc2c(Cl)cccc21 [Compound 167],"Plant response rating, Barnyardgrass",barnyardgrass [1]; [24],20
same,"Plant response rating, Barnyardgrass",barnyardgrass [1]; [25],60
same,"Plant response rating, Rice (Flood)",rice,0
same,"Plant response rating, Kochia",kochia [2]; [24],90
same,"Plant response rating, Kochia",kochia [2]; [25],100
same,"Plant response rating, Foxtail, Green",green foxtail [3]; [26],100
same,"Foxtail, Green plant response rating","green foxtail [3]; Test C, 125 g ai/ha",100
same,"Plant response rating, Barnyardgrass (Flood)",barnyardgrass [4],0
same,"Plant response rating, Wheat",wheat [5]; [24],10
same,"Plant response rating, Wheat",wheat [5]; [25],20
same,"Plant response rating, Blackgrass",blackgrass [6]; [26],70
same,Blackgrass plant response rating,"blackgrass [6]; Test C, 125 g ai/ha",30
same,"Plant response rating, Horseweed",horseweed; [24],10
same,"Plant response rating, Horseweed",horseweed; [25],30
same,"Plant response rating, Foxtail, Green",green foxtail [7]; [24],50
same,"Plant response rating, Foxtail, Green",green foxtail [7]; [25],90
same,"Plant response rating, Oat, Wild","oat, wild [8]; [26]",50
same,"Oat, Wild plant response rating","oat, wild [8]; Test C, 125 g ai/ha",20
same,"Plant response rating, Wheat",wheat [9]; [26],0
same,Wheat plant response rating,"wheat [9]; Test C, 125 g ai/ha",0
same,"Plant response rating, Ragweed",ragweed [10]; [24],90
same,"Plant response rating, Ragweed",ragweed [10]; [25],90
same,"Plant response rating, Ducksalad (Flood)",ducksalad,0
same,Barnyardgrass plant response rating,barnyardgrass [11]; 125 g ai/ha,90
same,"Plant response rating, Barnyardgrass",barnyardgrass [11]; [26],100
same,"Plant response rating, Soybean",soybean [12]; [24],100
same,"Plant response rating, Soybean",soybean [12]; [25],100
same,"Plant response rating, Galium",galium; [24],90
same,"Plant response rating, Galium",galium; [25],100
same,"Plant response rating, Corn",corn [13]; [24],10
same,"Plant response rating, Corn",corn [13]; [25],20
same,"Plant response rating, Blackgrass",blackgrass [14]; [24],0
same,"Plant response rating, Blackgrass",blackgrass [14]; [25],70
same,"Plant response rating, Kochia",kochia [15]; [26],100
same,Kochia plant response rating,"kochia [15]; Test C, 125 g ai/ha",90
same,"Plant response rating, Soybean",soybean [16]; [26],80
same,Soybean plant response rating,"soybean [16]; Test C, 125 g ai/ha",40
same,"Plant response rating, Oat, Wild","oat, wild [17]; [24]",0
same,"Plant response rating, Oat, Wild","oat, wild [17]; [25]",20
same,"Plant response rating, Ryegrass, Italian","ryegrass, Italian [18]; [26]",90
same,"Ryegrass, Italian plant response rating","ryegrass, Italian [18]; Test C, 125 g ai/ha",80
same,"Plant response rating, Ryegrass, Italian","ryegrass, Italian [19]; [24]",20
same,"Plant response rating, Ryegrass, Italian","ryegrass, Italian [19]; [25]",80
same,"Plant response rating, Corn",corn [20]; [26],0
same,Corn plant response rating,"corn [20]; Test C, 125 g ai/ha",0
same,"Plant response rating, Ragweed",ragweed [21]; [26],80
same,Ragweed plant response rating,"ragweed [21]; Test C, 125 g ai/ha",10
same,"Plant response rating, Sedge, Umbrella (Flood)","sedge, umbrella",0
same,"Plant response rating, Pigweed, Palmer","pigweed, palmer [22]; [26]",100
same,"Pigweed, Palmer plant response rating","pigweed, palmer [22]; Test C, 125 g ai/ha",100
same,"Plant response rating, Pigweed, Palmer","pigweed, palmer [23]; [24]",90
same,"Plant response rating, Pigweed, Palmer","pigweed, palmer [23]; [25]",100
COC[C@H]1CN(C(=O)c2cc(-n3cnc(C(C)C)n3)ccc2OC)c2cccc(Cl)c2O1 [Compound 314],"Plant response rating, Barnyardgrass",barnyardgrass [1]; [27],60
same,"Plant response rating, Barnyardgrass",barnyardgrass [1]; [28],30
same,"Plant response rating, Rice (Flood)",rice,15
same,"Plant response rating, Kochia",kochia [2]; [27],90
same,"Plant response rating, Kochia",kochia [2]; [28],90
same,"Foxtail, Green plant response rating",green foxtail [3]; 500 g ai/ha,100
same,"Foxtail, Green plant response rating","green foxtail [3]; Test C, 125 g ai/ha",100
same,"Plant response rating, Barnyardgrass (Flood)",barnyardgrass [4],15
same,"Plant response rating, Wheat",wheat [5]; [27],30
same,"Plant response rating, Wheat",wheat [5]; [28],20
same,Blackgrass plant response rating,blackgrass [6]; 500 g ai/ha,70
same,Blackgrass plant response rating,"blackgrass [6]; Test C, 125 g ai/ha",20
same,"Plant response rating, Horseweed",horseweed; [27],90
same,"Plant response rating, Horseweed",horseweed; [28],100
same,"Plant response rating, Foxtail, Green",green foxtail [7]; [27],90
same,"Plant response rating, Foxtail, Green",green foxtail [7]; [28],60
same,"Oat, Wild plant response rating","oat, wild [8]; 500 g ai/ha",80
same,"Oat, Wild plant response rating","oat, wild [8]; Test C, 125 g ai/ha",60
same,Wheat plant response rating,wheat [9]; 500 g ai/ha,40
same,Wheat plant response rating,"wheat [9]; Test C, 125 g ai/ha",20
same,"Plant response rating, Ragweed",ragweed [10]; [27],90
same,"Plant response rating, Ragweed",ragweed [10]; [28],80
same,"Plant response rating, Ducksalad (Flood)",ducksalad,85
same,Barnyardgrass plant response rating,barnyardgrass [11]; 500 g ai/ha,100
same,Barnyardgrass plant response rating,"barnyardgrass [11]; Test C, 125 g ai/ha",70
same,"Plant response rating, Soybean",soybean [12]; [27],100
same,"Plant response rating, Soybean",soybean [12]; [28],100
same,"Plant response rating, Galium",galium; [27],100
same,"Plant response rating, Galium",galium; [28],100
same,"Plant response rating, Corn",corn [13]; [27],90
same,"Plant response rating, Corn",corn [13]; [28],80
same,"Plant response rating, Blackgrass",blackgrass [14]; [27],100
same,"Plant response rating, Blackgrass",blackgrass [14]; [28],80
same,Kochia plant response rating,kochia [15]; 500 g ai/ha,100
same,Kochia plant response rating,"kochia [15]; Test C, 125 g ai/ha",90
same,Soybean plant response rating,soybean [16]; 500 g ai/ha,90
same,Soybean plant response rating,"soybean [16]; Test C, 125 g ai/ha",40
same,"Plant response rating, Oat, Wild","oat, wild [17]; [27]",40
same,"Plant response rating, Oat, Wild","oat, wild [17]; [28]",40
same,"Ryegrass, Italian plant response rating","ryegrass, Italian [18]; 500 g ai/ha",100
same,"Ryegrass, Italian plant response rating","ryegrass, Italian [18]; Test C, 125 g ai/ha",100
same,"Plant response rating, Ryegrass, Italian","ryegrass, Italian [19]; [27]",90
same,"Plant response rating, Ryegrass, Italian","ryegrass, Italian [19]; [28]",80
same,Corn plant response rating,corn [20]; 500 g ai/ha,0
same,Corn plant response rating,"corn [20]; Test C, 125 g ai/ha",0
same,Ragweed plant response rating,ragweed [21]; 500 g ai/ha,70
same,Ragweed plant response rating,"ragweed [21]; Test C, 125 g ai/ha",50
same,"Plant response rating, Sedge, Umbrella (Flood)","sedge, umbrella",100
same,"Pigweed, Palmer plant response rating","pigweed, palmer [22]; 500 g ai/ha",100
same,"Pigweed, Palmer plant response rating","pigweed, palmer [22]; Test C, 125 g ai/ha",100
same,"Plant response rating, Pigweed, Palmer","pigweed, palmer [23]; [27]",90
same,"Plant response rating, Pigweed, Palmer","pigweed, palmer [23]; [28]",60
